Tested on: whitefly Bemisia tabaci
Experiment: Bemisia test (plant-damaging insects; infested cotton plants immersed in active compound preparation)
Format: in vivo
Details: single active compound, eggs, larvae and pupae on cotton plants (Gossypium hirsutum)
Method: • Bemisia Test • Solvent: 7.5 parts by weight of dimethylformamide Emulsifier: 2.5 parts by weight of alkylaryl polyglycol ether
To produce a suitable preparation of active compound, 1 part by weight of active compound is mixed with the stated amounts of solvent and emulsifier, and the concentrate is diluted with water to the desired concentration.
Cotton plants (Gossypium hirsutum) which are infested with eggs, larvae and pupae of the whitefly Bemisia tabaci are immersed in a preparation of active compound of the desired concentration.
After the desired period of time, the kill in % is determined. 100% means that all animals have been killed; 0% means that none of the animals have been killed.

Cc1cc(C)c(C2=C(OC(=O)CC(C)(C)C)C3(CCCC3)OC2=O)c(C)c1 [Ex. (I-b-1)]
Kill rate in % after 10 d (4 ppm): 0% | Kill rate in % after 10 d (20 ppm): 80%

CC1=NNC(=O)N(/N=C/c2cccnc2)C1 [Pymetrozin, pymetrozin]
Kill rate in % after 10 d (4 ppm): 0%

CC(COc1ccc(Oc2ccccc2)cc1)Oc1ccccn1 (stereo not shown) [Pyriproxiphen, pyriproxyfen]
Kill rate in % after 10 d (20 ppm): 0%

From patent US7244750B2, “Active substance combinations having insecticidal and acaricidal properties” (Bayer CropScience Aktiengesellschaft, priority 2000, dated 2007)
